Measured values as given in patent US20180106782A1, “HIGH THROUGHPUT CARDIOTOXICITY SCREENING PLATFORM” (The Board of Trustees of the Leland Stanford Junior …, priority 2016, published 2018).

Test system: μpatterned hiPSC-CMs
Assay: traction force microscopy of moving microbeads under beating μpatterned hiPSC-CMs
Type: cell-based, human
Description: We cultured single hiPSC-CMs on Matrigel micropatterns, which were transferred from printed glass coverslips onto the surface of polyacrylamide hydrogels with a stiffness of 10 kPa as previously described. (Ribeiro 2015a) In summary, Matrigel was diluted 1:10 in L15 medium (Thermo Fisher) and added to the top of elastomeric microstamps composed of polydimethylsiloxane 182 (Dow Corning) to be incubated at 3-4° C. overnight. Microstamps consisted of 2000 μm^2 rectangular features with an aspect ratio of 7:1 (length:width). We gently aspirated Matrigel after the overnight incubation, washed the stamps twice in L15 medium, aspirated L15 medium from the surface and dried it with a low stream of N2 gas. We then used microstamps to micropattern the Matrigel rectangular features on clean glass coverslips by microcontact printing. Matrigel on micropatterns was transferred to the surface of the polyacrylamide substrates during the gelation process by placing the patterned coverslip in contact with the top of the acrylamide prepolymer solution right before gelation. The aqueous prepolymer solution to be gelled was composed of acrylamide (Sigma-Aldrich)(10% w/v), bisacrylamide (Sigma-Aldrich) (0.1% w/v), ammonium persulfate (Sigma-Aldrich) (0.01% w/v) and N,N,N′,N′-tetramethylethylenediamine (Sigma-Aldrich) (0.1% v/v), HEPES (Thermo Fisher) (35 mM) and Milli-Q water. To calculate the forces generated by cells attached to polyacrylamide surfaces with traction force microscopy, green fluorescent microbeads with a diameter of 0.2 μm (Thermo Fisher) were also dispersed in the gel solution to yield a final concentration of 6.25×10^9 microbeads/mL. We gelled acrylamide on top of another coverslip functionalized with 3-(trimethoxysilyl)propyl methacrylate (Sigma-Aldrich), which binds polyacrylamide. […] Once polymerized, polyacrylamide substrates were incubated in PBS for at least 2 hours and the top coverslips were carefully removed with a razor blade. We seeded hiPSC-CMs on these polyacrylamide hydrogel substrates after washing them 3 times with PBS.
We passaged hiPSC-CMs onto micropatterned polyacrylamide devices at a density of 1000 cells/cm^2. For this purpose, cultures of thawed cells were washed twice with PBS and incubated in 1 mL of Accutase for 8-10 min. After observing cell detachment from the bottom of the wells, we quenched Accutase with Dulbecco's modified Eagle's medium (Thermo Fisher) containing 12% fetal bovine serum and counted the concentration of cells in medium with a hemocytometer. Then, we centrifuged cells at 83 rcf for 3 min at room temperature and aspirated the supernatant to resuspend the pelleted cells in the required volume of medium (RPMI-1640 cell-culture medium with 5 μM ROCK inhibitor) for adding 150 μL of cell solution to the surface of hydrogel devices at a concentration of 1000 cells/cm^2. After 1.5 h of incubation, we added 2.5 mL of medium to the well containing hydrogel devices and added fresh medium without ROCK inhibitor after 2 days. Single beating cells on Matrigel patterns were analyzed between 5-10 days after seeding.
We imaged the movement of beating hiPSC-CMs and the displacement of fluorescent microbeads embedded in polyacrylamide substrates with a Zeiss Axiovert 200M inverted microscope equipped with a Zeiss Axiocam MRm CCD camera. This microscope also contained an environmental chamber (PeCon) to set temperature at 37° C. Unless otherwise noted, we acquired microscopy videos while electrically pacing hiPSC-CMs with 10 ms-wide bipolar pulses of electric-field stimulation at 10-15 V with a frequency of 1 Hz (Myopacer, lonOptix).
To induce contractile changes in hiPSC-CMs, we added drugs known to affect CM contractile machinery to the culture medium. We analyzed the mechanical output of cells after adding drugs. […]

[1] = extracellular caffeine slowly increased up to 10 μM (FIG. 3C)

Cn1c(=O)c2c(ncn2C)n(C)c1=O [caffeine]
kinetics of relaxation right after adding caffeine [1]: sudden decrease
mechanical output right after adding caffeine [1]: sudden increase
t̂ (time between peak velocity of contraction and peak velocity of relaxation) (low doses of caffeine slowly diffused through the culture media, single cell (FIG. 3B)): increase
magnitude of the contractions that followed and kinetics of relaxation (with increasing caffeine extracellular concentration (FIG. 3)): considerably decreased
